What was measured:
S. anginosus = experiment: High throughput assay screening of prebiotics; format: cell-based, Streptococcus anginosus; design: key: ++: if growth and fermentation was equal to or greater than the positive control; +: if growth and fermentation was less than the positive control; +: if weak or no growth or fermentation; +^2: Bacteria demonstrated growth but no fermentation on the prebiotic; conditions: 2% w/v prebiotic in API 50 CHL media; for growth and fermentation vs positive control, Sa-2: S. anginosus KC18-1131-3B, Bladder; for growth and fermentation vs positive control, Sa-1: S. anginosus ATCC 33397, Culture Collection
Description: (§1) Most of the prebiotic compounds were initially tested in a high throughput assay screening process, described further in the Test Methods section herein, but three prebiotics (as noted in Table 3) were tested using a plate assay screening process as described in the Test Methods section herein. The prebiotics were tested against the commensal bacterial species of Lactobacillus crispatus, Lactobacillus gasseri, and Lactobacillus jensenii and against the pathogenic bacterial species of Streptococcus anginosus and Enterococcus faecalis as shown in Table 2. The bacterial species were taken from different sources, listed as culture collection, bladder, and vagina.
(§2) The results of the assay plate screening of the prebiotic compounds of Table 1 against the bacterial species of Table 2 is documented in Table 3 with the results being described by the following legend: • ++ if growth and fermentation was equal to or greater than the positive control • + if growth and fermentation was less than the positive control • […] if weak or no growth or fermentation • NT if not tested Some codes were not tested based on the use or non-use by the bacteria, as a way to efficiently move through the assay plate screening to the competition assay, described below.
(§3) • 1. Create a 2% w/v stock of prebiotic or positive control (glucose/dextrose) to be tested in API 50 CHL media (Biomerieux, Marcy-I'Étoile, France). API 50 CHL media contains minimal amounts of carbon for growth, and a bromocresol purple as a pH indicator of fermentation. Filter sterilize media with a […]. Store at 4-6° C. until use. • 2. Add 180 μL of media containing the prebiotic to a sterile, flat bottom 96-well microtiter plate (Corning, Corning, NY). • 3. From a freezer stock subculture the bacteria twice into De Man, Rogosa and Sharpe (MRS) broth (BD Difco, Becton Dickinson, Franklin Lakes, NJ), 37° C., stationary, anaerobic, overnight. • 4. From the last subculture, plate onto an MRS agar plate (Teknova, Hollister, CA) and grow 37° C., stationary, anaerobic, overnight. • 5. Create a bacterial suspension by using a sterile tipped swab to transfer colonies of bacteria into a PBS suspension blank to a 0.5 MacFarland (S. anginosus or E. faecalis) or a 1 MacFarland (Lactobacillus species) from the MRS agar plate. • 6. Enumerate the starting culture. • 7. Inoculate the media alone and media containing the prebiotic or positive control with 20 μL of the bacterial suspension. • 8. Place the plate into a spectrophotometer (Molecular Devices, San Jose, CA) and read the plate every 20 minutes for 24-48 hours. Read wavelengths (OD 430, OD 590, and OD 660). A color change to yellow caused by a drop in pH will be read by an increase in the OD430 value and a decrease in the OD590 value and is indicative of bacterial fermentation. An increase in OD660 values is indicative of an increase in turbidity and bacterial growth.

L. crispatus = experiment: High throughput assay screening of prebiotics; format: cell-based, Lactobacillus crispatus; design: key: ++: if growth and fermentation was equal to or greater than the positive control; +: if growth and fermentation was less than the positive control; +: if weak or no growth or fermentation; +^2: Bacteria demonstrated growth but no fermentation on the prebiotic; conditions: 2% w/v prebiotic in API 50 CHL media; for growth and fermentation vs positive control, Lc-4: L. crispatus KC18-1174-1, Vagina; for growth and fermentation vs positive control, Lc-1: L. crispatus ATCC 33820, Culture Collection; for growth and fermentation vs positive control, Lc-2: L. crispatus KC16-7134-3C, Bladder; for growth and fermentation vs positive control, Lc-3: L. crispatus KC18-1173-1, Bladder
Description: as §1, §2, §3

L. gasseri = experiment: High throughput assay screening of prebiotics; format: cell-based, Lactobacillus gasseri; design: key: ++: if growth and fermentation was equal to or greater than the positive control; +: if growth and fermentation was less than the positive control; +: if weak or no growth or fermentation; +^2: Bacteria demonstrated growth but no fermentation on the prebiotic; conditions: 2% w/v prebiotic in API 50 CHL media; for growth and fermentation vs positive control, Lg-1: L. gasseri KC16-7135-1, Bladder; for growth and fermentation vs positive control, Lg-2: L. gasseri KC16-7171-1, Bladder
Description: as §1, §2, §3

E. faecalis = experiment: High throughput assay screening of prebiotics; format: cell-based, Enterococcus faecalis; design: key: ++: if growth and fermentation was equal to or greater than the positive control; +: if growth and fermentation was less than the positive control; +: if weak or no growth or fermentation; +^2: Bacteria demonstrated growth but no fermentation on the prebiotic; conditions: 2% w/v prebiotic in API 50 CHL media; for growth and fermentation vs positive control, Ef-3: E. faecalis KC17-3969-2B, Bladder; for growth and fermentation vs positive control, Ef-4: E. faecalis KC17-4331-3, Bladder; for growth and fermentation vs positive control, Ef-1: E. faecalis ATCC BAA-2128, Culture Collection; for growth and fermentation vs positive control, Ef-2: E. faecalis KC16-7171-3, Bladder
Description: as §1, §2, §3

[1] = tested on: commensal and pathogenic bacterial species; experiment: Prebiotic screening, summary in words across species; format: cell-based; conditions: commensal (L. crispatus, L. gasseri, L. jensenii) and pathogenic (S. anginosus, E. faecalis) species
Description: as §1, §2, §3
• 1. An in house bacterial agar was created based on MRS agar (Kaplan and Hutkins, 2000) where the glucose is substituted for the prebiotic to be tested (either dextran MW ˜6,000, alpha-cyclodextrin, glucomannan, or pectin), bromocresol purple was included as a pH indicator. • 2. Bacteria were enumerated on each agar and color changes were recorded. Method for Competition Assay (Modified from “In Vitro Evaluation of Nutrients that Selectively Confer a Competitive Advantage to Lactobacilli” Vongsa et al, Beneficial Microbes 2016) • 1. Create 2% w/v stock of prebiotic or positive control (glucose/dextrose) as described above. • 2. From a freezer stock subculture the bacteria twice into De Man, Rogosa and Sharpe (MRS) broth (BD Difco, Becton Dickinson, Franklin Lakes, NJ), 37° C., stationary, anaerobic, overnight. • 3. From the last subculture, plate onto an MRS agar plate for L. crispatus KC18-1173-1 or blood agar for S. anginosus KC18-1131-3B, grow 37° C., stationary, anaerobic, overnight. • 4. […]

| SMILES | growth and fermentation vs positive control, Sa-2 (S. anginosus) | growth and fermentation vs positive control, Lc-4 (L. crispatus) | growth and fermentation vs positive control, Lg-4 (L. gasseri; L. gasseri KC18-1142-2, Bladder) | growth and fermentation vs positive control, Ef-3 (E. faecalis) | growth and fermentation vs positive control, Ef-4 (E. faecalis) | overall outcome of the screening of Table 3, in words [1] | growth and fermentation vs positive control, Sa-1 (S. anginosus) | growth and fermentation vs positive control, Lc-1 (L. crispatus) | growth and fermentation vs positive control, Lc-2 (L. crispatus) | growth and fermentation vs positive control, Lc-3 (L. crispatus) | growth and fermentation vs positive control, Lg-1 (L. gasseri) | growth and fermentation vs positive control, Lg-2 (L. gasseri) | growth and fermentation vs positive control, Ef-1 (E. faecalis) | growth and fermentation vs positive control, Ef-2 (E. faecalis) |
| --- | --- | --- | --- | --- | --- | --- | --- | --- | --- | --- | --- | --- | --- | --- |
| OC[C@H]1O[C@@H](O[C@@H]2[C@@H](CO)OC(O)(CO)[C@H]2O)[C@H](O)[C@@H](O)[C@H]1O (mixture of isomers) [Lactulose] | ++ | ++ | + | +^2 | +^2 |  |  |  |  |  |  |  |  |  |
| O=C(O)CC(O)C(=O)O (racemic) [DL-Malic acid, DL-Malic acid (Malate)] |  |  |  |  |  | not able to provide growth for most, if not all, commensal and pathogenic bacterial species |  |  |  |  |  |  |  |  |
| OC[C@H]1O[C@@H](O)[C@H](O)[C@@H](O)[C@@H]1O [Beta-D-glucose, Beta-D-Glucose] | ++ | ++ |  | ++ | ++ | able to provide growth on the commensal bacterial species, but also provided growth on the pathogenic bacterial species | ++ | ++ | ++ | ++ | ++ | ++ | ++ | ++ |
| CC(=O)N[C@H]1C(O)O[C@H](CO)[C@@H](O)[C@@H]1O (stereo partly shown) [N-Acetylglucosamine] | ++ | + |  | ++ | ++ | able to provide growth on the commensal bacterial species, but also provided growth on the pathogenic bacterial species | ++ | ++ | + | ++ | ++ | ++ | ++ | ++ |
| O=C(CO)[C@@H](O)[C@@H](O)[C@H](O)CO [Tagatose] |  |  |  | ++ | ++ |  |  |  |  |  |  |  | ++ | ++ |
| OC[C@@H](O)[C@H](O)[C@@H](O)CO [Xylitol] |  |  |  |  |  | not able to provide growth for most, if not all, commensal and pathogenic bacterial species |  |  |  |  |  |  |  |  |

Reference: patent US20230293560A1, “METHOD FOR MODULATING THE BLADDER MICROBIOME TO IMPROVE BLADDER HEALTH” (Kimberly-Clark Worldwide, Inc., priority 2020, published 2023)
